Laboratory results as given in patent US8211646B1, “Methods of treating ovarian cancer by modulating SnoN” (University of South Florida, priority 2008, dated 2012).

How the values were obtained:
[1] = test system: LC3-I/LC3-II, autophagosomes; assay: Autophagy: LC3 western, EGFP-LC3 fluorescence, TEM of autophagosomes; assay type: cell-based
Method: Proteins were resolved on an 8%, 12%, or 15% SDS-PAGE gel (as appropriate) and electrophoretically transferred to polyvinyldifluoride (PVDF) membranes. After blocking with 5% (w/v) milk in TBST (Tris-Buffered Saline containing 0.1% Tween-20) for one hour at room temperature, membranes were incubated with primary antibodies (at appropriate dilution) overnight at 4° C., followed by extensive washing and incubation for 1 hour with the appropriate horseradish peroxidase-conjugated secondary antibodies (BioRad, Hercules, Calif.). Blots were washed extensively. A rabbit polyclonal EVI1 antibody was obtained (1:3000 dilution, St. Jude's Children's Hospital, Memphis, Tenn.). SnoN rabbit polyclonal (1:1000 dilution), PML, and p21 SMURF2 rabbit polyclonal (1:500 dilution), MRP1 mouse monoclonal (1:500 dilution) and GAPDH mouse monoclonal (1:250 dilution) antibodies were obtained from Santa Cruz Biotechnology (Santa Cruz, Calif.). TGFβRII rabbit polyclonal (1:1000 dilution) antibody was obtained from Strategic Diagnostics (Newark, Del.). Smad2/3 rabbit polyclonal (1:1000 dilution), Beclin-1 rabbit polyclonal (1:1000 dilution), AKT rabbit polyclonal (1:1000 dilution), TAK1 rabbit polyclonal (1:1000 dilution), PARP rabbit polyclonal (1:1000 dilution), Beclin-1 rabbit polyclonal (1:1000 dilution), caspase-3 rabbit polyclonal (1:1000) which detects the pro-caspase form, and ATG5 rabbit polyclonal (1:1000 dilution), LC3-II rabbit polyclonal (1:1000 dilution) antibodies were obtained from Cell Signaling Technology (Danvers, Mass.). The HSP27 mouse monoclonal (1:1000 dilution) antibody was obtained from Stressgen (Ann Arbor, Mich.). Blots were developed using chemiluminescence substrates (Amersham Piscataway, N.J. or BioRad, Hercules, Calif.). Monoclonal PAI-1 antibody was obtained from BD Pharmingen. PSMAD2, total SMAD2/3, p-ERK, p-AKT, and total AKT antibodies were obtained from Cell Signaling Technology. A monoclonal antibody against Arkadia was obtained from Abnova (Taiwan).
HEY cells were seeded onto glass coverslips and allowed to adhere following overnight incubation. The cells were then transiently transfected with EGFP-LC3 (Addgene, Cambridge, Mass.) and allowed to recover for 24 hours. The cells were treated at the appropriate concentrations of As2O3 in the absence or presence of 3-MA (5 and 10 mM), for 18 hours. The cells were then fixed in 4% paraformaldehyde in PBS for 30 minutes at room temperature, washed twice in PBS, and blocked for 1 hour at room temperature in PBS containing 5% goat serum and 0.1% Triton X-100. The cells were counterstained with Hoescht nuclear stain, washed 3 times for 5 minutes in PBS, anti-Fade containing DAPI nuclear stain was then applied, and coverslips mounted onto glass slides and viewed under a Zeiss inverted fluorescence microscope (Moffitt Cancer Center Microscopy Core).
Autophagy induction was analyzed using electron microscopy. […] Cells were then fixed in 2.5% glutaraldehyde in 0.1M phosphate buffer overnight at 4° C. Following rinsing in buffer, cells were scraped from the culture flasks, washed, and then post-fixed in 1% osmium tetroxide in buffer. After dehydration in a graded series of acetone, the cells were embedded in Embed 812 epoxy resin. Thin sections (70 nm) were cut on an Ultramicrotome. The sections on the grids were stained with uranyl acetate and lead citrate. The sections were examined on a Transmission Electron Microscope (Morgagni 268D).

[2] = test system: glutathione (GSH); assay: GSH-Glo glutathione assay; assay type: cell-based; conditions: T80, HEY, SKOV3; 18 hours
Method: Glutathione (GSH) was measured using the GSH Glo kit (Promega). Briefly, T80, HEY, and SKOV3 ovarian cells were plated at 5000 cells/well in opaque white 96 well plates. Following overnight attachment, cells were treated with As2O3 for 18 hours. Following cell treatments, the media was discarded and fresh PBS was added for washout followed by the addition of 100 μl of GSH-Glo reagent. Following a 2 minute shake, the cells were incubated at room temperature for 30 minutes followed by the addition of reconstituted luciferase detection reagent. The cells were incubated for a further 15 minutes at room temperature and the plate was read on a Biotek luminescence plate reader. All measurements were performed in triplicate.

## Arsenic trioxide [As2O3]
[1]; As2O3, 18 hours, correlated with SnoN expression
  levels of LC3-I and LC3-II: increased
[1]; HEY, As2O3 between 5 μM to 25 μM, data not shown
  EGFP-LC3 staining pattern: punctuate staining pattern around the nucleus
[1]; HEY, data not shown
  autophagosomes by TEM: numerous double membrane autophagosomes
[2]
  GSH levels: markedly reduced
